Literature values as cited in article PMC12465416 (BMC Infectious Diseases, 2025).
Structures can show the parent of a compound that is named as a salt. Where a SMILES comes first, the peptide text is derived from it. Bridges are numbered along the chain shown (N, C = ends). [ ]: non-standard residue; d: D form. The star is where a group is joined. X1 = CC[C@H](C)CCCCC(=O)*; Dab = NCC[C@H](N)C(=O)O

Settings: IV PMB alone to treat CRGNB pneumonia

## CC[C@H](C)CCCCC(=O)N[C@@H](CCN)C(=O)N[C@H](C(=O)N[C@@H](CCN)C(=O)N[C@H]1CCNC(=O)[C@H]([C@@H](C)O)NC(=O)[C@H](CCN)NC(=O)[C@H](CCN)NC(=O)[C@H](CC(C)C)NC(=O)[C@@H](Cc2ccccc2)NC(=O)[C@H](CCN)NC1=O)[C@@H](C)O [PMB, polymyxin B sulfate] (X1-[Dab]T[Dab][Dab][Dab][dF]L[Dab][Dab]T; lactam 4-C)
  drug concentrations in ELF compared with those in plasma: significantly lower
